The target of assay [1] is T1, human GP IIb/IIIa receptor (Homo sapiens, UniProt P05106+P08514).
T1 construct: human GPIIb/IIIa purified from human platelets was immobilized on a 96-well solid plate; purchased Enzyme Research Laboratories Inc. (South Bend, Ind.); host or cells: human platelets (natural source, detergent-solubilised)
Kind of assay: GPIIb/IIIa affinity assay (displacement of tritiated reference compound from immobilized receptor). Format: binding. The settings on record: purified human GPIIb/IIIa, 60 nM 3H-labeled reference compound, 1 hour at room temperature. The procedure:
Affinity assay: In the first step human GPIIb/IIIa purified from human platelets was immobilized on a 96-well solid plate. After 48 hours the plates were washed and the unspecific binding sites were blocked with Roti®-Block. 2. In the next step, the plates were simultaneously incubated with a tritium labeled known GPIIb/IIIa binder (^3H) mixed with increasing concentrations of the novel compounds (inhibitor). The higher the affinity of the inhibitor, the lower the bound fraction of the tritiated known GPIIb/IIIa binder (^3H) was. The fraction of tritiated compound (^3H), which is not displaced by inhibitor, was measured in a microplate scintillation counter.
Purified human glycoprotein IIb/IIIa (20 mM Tris-HCl, 0.1 M NaCl, 0.1% Triton X-100, 1 mM CaCl2, 0.05% NaN3, 50% Glycerol, pH 7.4) was purchased from Enzyme Research Laboratories Inc. (South Bend, Ind.). The GPIIb/IIIa receptor was diluted in phosphate-buffered saline (Dulbecco's Phosphate Buffered Saline (D-PBS (+)) with calcium and magnesium, GIBCO®, Invitrogen) with 0.01% bovine serum albumin (albumin from bovine serum—lyophilized powder, 96%, Sigma).
The GPIIb/IIIa receptor was immobilized 48 hours at least (100 μL per well, 48 to maximum 96 hours) on a 96-well solid plate (Immuno Plate MaxiSorp™, Nunc, Roskilde, Denmark) at 277 K to 280 K and at a concentration of 0.1 μg per well to 1 μg per well. As negative control one row of the plate (n=8) was incubated just with 2% bovine serum albumin (200 μL per well, albumin from bovine serum—lyophilized powder, ≧96%, Sigma, diluted in D-PBS (+)).
After washing three times with the wash buffer (230 μL per well, Dulbecco's Phosphate Buffered Saline (D-PBS (−)) contains no calcium or magnesium, GIBCO®, Invitrogen) residual exposed plastic and unspecific binding sites were blocked by incubating the plate with a special blocking solution (200 μL per well, Roti®-Block, Car Roth GmbH Co KG, Karlsruhe) containing 2% bovine serum albumin (Albumin from bovine serum—lyophilized powder, ≧96%, Sigma) 1 hour at room temperature.
After washing three times with the wash buffer 50 μL of tritiated reference compound (60 nM, ^3H-labeled compound) and 50 μL of novel compound (inhibitor) were simultaneously added to each well and incubated for 1 hour at room temperature. Several concentrations of each novel inhibitor (0.1, 1, 2, 5, 10, 20 50, 100, 200, 500, 1000, 2000, 5000, 10000 and 20000 nM) were investigated. At each concentration of inhibitor a fourfold determination was performed.
The maximum value of tritiated reference compound was determined without addition of inhibitor (n=8). To exclude unspecific binding of ^3H— reference compound wells without glycoprotein receptors were used as negative controls (n=12, identically treated just without GPIIb/IIIa receptors).
After one hour the plate was washed three times with phosphate-buffered saline (200 μL per well, Dulbecco's Phosphate Buffered Saline (D-PBS (+)), GIBCO®, Invitrogen). Following 140 μL of liquid scintillation cocktail (MicroScint™ 40 aqueous, Perkin Elmer) was added to each well. After 15 min at room temperature the plates were measured at the microplate scintillation counter (TopCount NXT v2.13, Perkin Elmer, Packard Instrument Company).
In the first step human glycoprotein IIb/IIIa, which is purified from human platelets, was immobilized on a 96-well solid plate. After 48 hours at least the plates were washed and the unspecific binding sites were blocked with Roti®-Block. In the next step, the plates were simultaneously incubated with a tritium labeled reference compound and the novel small molecule compound (inhibitor). The higher the affinity of the inhibitor, the smaller is the bound fraction of reference compound. The fraction of tritiated reference compound, which is not displaced by inhibitor, was measured at a microplate scintillation counter. The higher the affinity of the inhibitor, the smaller is the bound fraction of tritium-labeled reference compound. […]

Assay [2] relates to human activated platelets. Kind of assay: Binding of investigated compounds to human activated platelets (ICP-MS of Gd in pellet and supernatant). Format: cell-based. Particulars: ADP-activated platelet-rich plasma, 20 minutes. The procedure:
For each experiment fresh blood was taken from a volunteer using 10 mL citrate-tubes (Sarstedt S-Monovette 02.1067.001, 10 mL, Citrate 3.13%). The 10 mL citrate-tubes were carefully inverted 10 times to mix blood and anticoagulant. The tubes were stored in an incubator at a temperature of 37° C. until centrifugation (Heraeus miniTherm CTT with integrated rotation- and turning device, turning speed: 19 rotations per minute, Heraeus Instruments GmbH, Hanau/Germany).
For plasma preparation tube centrifugation was carried out for 15 minutes at 1811 g at room temperature (Eppendorf, Centrifuge 5810R). Blood was centrifuged 15 minutes at 201 g at room temperature to produce platelet-rich plasma. The tubes were stored for 30 min at room temperature to get a better separation. The separated platelet-rich plasma was finally centrifuged for further 3 min at 453 g to remove the remaining erythrocytes. The platelet-rich plasma was activated using a final concentration of 5 μM Adenosindiphosphate (ADP, Sigma). The activated platelet-rich plasma was incubated 20 minutes with different concentrations of gadolinium-labeled compound and subsequently was centrifuged 3 minutes at 1360 g. 20 μL of incubation solution was taken to determine the concentration (n=3). […] The gadolinium concentration of supernatant and pellet was determined using an inductively coupled plasma mass spectrometry (ICP-MS Agilent 7500a).
The results for incubation concentration of 1 μM gadolinium-labeled compound are summarized in table 3 (in comparison to Gadovist® standard dose: 100 μmol Gd/kg body weight).

Where [3] appears, read: incubation concentration 1 μM molecule, pellet was not washed.
[4] abbreviates: incubation concentration 1 μM molecule, pellet washed.

Structures are written as SMILES.

T1 sequence (P08514 32-887 limits assumed): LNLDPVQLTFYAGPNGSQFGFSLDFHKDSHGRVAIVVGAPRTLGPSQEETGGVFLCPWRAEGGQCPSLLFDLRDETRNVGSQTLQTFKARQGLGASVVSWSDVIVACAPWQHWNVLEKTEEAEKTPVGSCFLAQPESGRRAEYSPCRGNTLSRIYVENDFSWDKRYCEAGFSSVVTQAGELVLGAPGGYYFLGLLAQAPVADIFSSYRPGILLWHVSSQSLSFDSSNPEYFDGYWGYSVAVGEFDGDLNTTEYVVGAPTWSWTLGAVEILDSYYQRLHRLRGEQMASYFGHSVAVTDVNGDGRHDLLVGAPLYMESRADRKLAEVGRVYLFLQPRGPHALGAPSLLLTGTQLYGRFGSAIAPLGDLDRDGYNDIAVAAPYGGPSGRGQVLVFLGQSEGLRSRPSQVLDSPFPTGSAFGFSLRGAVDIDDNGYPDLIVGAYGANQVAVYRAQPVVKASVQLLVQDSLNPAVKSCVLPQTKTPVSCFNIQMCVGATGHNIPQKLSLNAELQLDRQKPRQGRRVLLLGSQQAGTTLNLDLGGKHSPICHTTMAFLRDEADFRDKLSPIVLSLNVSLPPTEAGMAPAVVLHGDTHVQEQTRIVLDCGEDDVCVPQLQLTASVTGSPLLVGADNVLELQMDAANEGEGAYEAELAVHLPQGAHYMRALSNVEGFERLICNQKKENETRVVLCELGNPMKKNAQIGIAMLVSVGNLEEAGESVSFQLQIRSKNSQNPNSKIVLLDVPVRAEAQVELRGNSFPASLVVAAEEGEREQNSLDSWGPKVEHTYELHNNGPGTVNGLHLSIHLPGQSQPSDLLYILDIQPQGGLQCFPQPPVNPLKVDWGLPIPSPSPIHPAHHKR
T1 sequence (P08514 891-1039 partner limits assumed): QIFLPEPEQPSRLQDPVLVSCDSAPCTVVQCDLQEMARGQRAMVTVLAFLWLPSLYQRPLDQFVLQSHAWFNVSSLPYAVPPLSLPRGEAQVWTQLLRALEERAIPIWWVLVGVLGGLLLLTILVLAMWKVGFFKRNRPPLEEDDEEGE
T1 sequence (P05106 27-788): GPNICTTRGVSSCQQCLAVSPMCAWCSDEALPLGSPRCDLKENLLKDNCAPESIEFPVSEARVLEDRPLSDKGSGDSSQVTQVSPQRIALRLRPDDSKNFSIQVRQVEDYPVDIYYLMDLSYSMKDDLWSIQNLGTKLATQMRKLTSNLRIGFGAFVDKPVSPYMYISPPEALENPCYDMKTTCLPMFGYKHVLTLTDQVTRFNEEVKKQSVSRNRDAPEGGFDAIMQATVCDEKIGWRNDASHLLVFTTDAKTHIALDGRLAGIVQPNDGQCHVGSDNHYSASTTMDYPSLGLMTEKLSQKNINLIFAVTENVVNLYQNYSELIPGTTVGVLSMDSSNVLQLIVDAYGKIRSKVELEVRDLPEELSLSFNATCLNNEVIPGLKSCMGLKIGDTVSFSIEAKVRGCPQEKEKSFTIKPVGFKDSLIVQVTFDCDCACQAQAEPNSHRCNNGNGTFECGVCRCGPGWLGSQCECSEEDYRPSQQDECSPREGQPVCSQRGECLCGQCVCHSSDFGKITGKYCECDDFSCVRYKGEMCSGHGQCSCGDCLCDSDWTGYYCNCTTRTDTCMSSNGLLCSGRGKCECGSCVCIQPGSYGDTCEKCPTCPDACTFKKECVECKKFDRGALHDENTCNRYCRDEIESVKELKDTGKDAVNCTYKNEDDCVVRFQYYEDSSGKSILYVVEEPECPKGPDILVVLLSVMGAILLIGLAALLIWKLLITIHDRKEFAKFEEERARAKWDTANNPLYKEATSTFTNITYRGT

Consider `C[C@@H](C(=O)NCC(=O)OCCC#Cc1cncc([C@H](CC(=O)O)NC(=O)[C@@H]2CCCN(C(=O)CCC3CCNCC3)C2)c1)N1CCN(CC(=O)O)CCN(CC(=O)O)CCN(CC(=O)O)CC1` [Example 1, Gadolinium 2,2′,2″-(10-{(2S)-1-[(2-{[4-(5-{(1S)-2-carboxy-1-[({(3R)-1-[3-(piperidin-4-yl)-propanoyl]piperidin-3-yl}carbonyl)amino]ethyl}pyridin-3-yl)but-3-yn-1-yl]oxy}-2-oxo-ethyl)amino]-1-oxopropan-2-yl}-1,4,7,10-tetraazacyclododecane-1,4,7-triyl)triacetate], for which, in assay [1], the IC50 worked out at 29 nM.

The compound `C[C@@H](C(=O)NCC(=O)NCCC#Cc1cncc([C@H](CC(=O)O)NC(=O)[C@@H]2CCCN(C(=O)CCC3CCNCC3)C2)c1)N1CCN(CC(=O)O)CCN(CC(=O)O)CCN(CC(=O)O)CC1` [Example 2, Gadolinium 2,2′,2″-(10-{(2S)-1-[(2-{[4-(5-{(1S)-2-carboxy-1-[({(3R)-1-[3-(piperidin-4-yl)-propanoyl]piperidin-3-yl}carbonyl)amino]ethyl}pyridin-3-yl)but-3-yn-1-yl]amino}-2-oxo-ethyl)amino]-1-oxopropan-2-yl}-1,4,7,10-tetraazacyclododecane-1,4,7-triyl)triacetate] showed an IC50 in assay [1] of 24 nM. Further, the “Concentration within platelet pellet” value in assay [2] (setting [3]) was 8.1 ± 0.6 μM Gd. As for `C[C@@H](C(=O)NCC(=O)NCCCCCCc1ccc(C#Cc2cncc([C@H](CC(=O)O)NC(=O)[C@@H]3CCCN(C(=O)CCC4CCNCC4)C3)c2)cc1)N1CCN(CC(=O)O)CCN(CC(=O)O)CCN(CC(=O)O)CC1` [Example 3, Gadolinium 2,2′,2″-{10-[(2S)-1-({2-[(6-{4-[(5-{(1S)-2-carboxy-1-[({(3R)-1-[3-(piperidin-4-yl)propanoyl]piperidin-3-yl}carbonyl)amino]ethyl}pyridin-3-yl)ethynyl]phenyl}hexyl)-amino]-2-oxoethyl}amino)-1-oxopropan-2-yl]-1,4,7,10-tetraazacyclododecane-1,4,7-triyl}triacetate], the IC50 in assay [1] is 13 nM. The “Concentration within platelet pellet” value in assay [2] (setting [3]) is 8.3 ± 2.1 μM Gd. `C[C@@H](C(=O)NCC(=O)NCCCCCCc1ccc(CCc2cncc([C@H](CC(=O)O)NC(=O)[C@@H]3CCCN(C(=O)CCC4CCNCC4)C3)c2)cc1)N1CCN(CC(=O)O)CCN(CC(=O)O)CCN(CC(=O)O)CC1` [Example 4, Gadolinium 2,2′,2″-{10-[(2S)-1-({2-[(6-{4-[(5-{(1S)-2-carboxy-1-[({(3R)-1-[3-(piperidin-4-yl)propanoyl]piperidin-3-yl}carbonyl)amino]ethyl}pyridin-3-yl)ethyl]phenyl}hexyl)-amino]-2-oxoethyl}amino)-1-oxopropan-2-yl]-1,4,7,10-tetraazacyclododecane-1,4,7-triyl}triacetate] had an IC50 in assay [1] of 25 nM. Besides, in assay [2] (setting [4]), the “Concentration within platelet pellet” value was determined as 3.8 ± 0.2 μM Gd.

`CC(C(=O)NCC(=O)NCC(NC(=O)CNC(=O)C(C)N1CCN(CC(=O)O)CCN(CC(=O)O)CCN(CC(=O)O)CC1)C(=O)NCC(NC(=O)C(CNC(=O)CNC(=O)C(C)N1CCN(CC(=O)O)CCN(CC(=O)O)CCN(CC(=O)O)CC1)NC(=O)CNC(=O)C(C)N1CCN(CC(=O)O)CCN(CC(=O)O)CCN(CC(=O)O)CC1)C(=O)NCCCCc1cccc(CCc2cncc([C@H](CC(=O)O)NC(=O)[C@@H]3CCCN(C(=O)CCC4CCNCC4)C3)c2)c1)N1CCN(CC(=O)O)CCN(CC(=O)O)CCN(CC(=O)O)CC1` (stereo partly drawn) [Example 9, Tetragadolinium 2,3-bis({2,3-bis[(N-{2-[4,7,10-tris(carboxylatomethyl)-1,4,7,10-tetraazacyclododecan-1-yl]propanoyl}glycyl)amino]propanoyl}amino)-N-(4-{3-[(5-{(1S)-2-carboxy-1-[({(3R)-1-[3-(piperidin-4-yl)propanoyl]piperidin-3-yl}carbonyl)amino]ethyl}pyridin-3-yl)ethyl]phenyl}butyl)propanamide]: the IC50 in assay [1] was 32 nM. The “Concentration within platelet pellet” value in assay [2] (incubation concentration 0.8 μM molecule, pellet washed) amounted to 21.1 ± 9.6 μM Gd. For `CC(C(=O)NCC(=O)NC[C@H](NC(=O)CNC(=O)C(C)N1CCN(CC(=O)O)CCN(CC(=O)O)CCN(CC(=O)O)CC1)C(=O)NCCCc1ccc(C#Cc2cncc([C@H](CC(=O)O)NC(=O)[C@@H]3CCCN(C(=O)CCC4CCNCC4)C3)c2)cc1)N1CCN(CC(=O)O)CCN(CC(=O)O)CCN(CC(=O)O)CC1` (stereo partly drawn) [Example 10, Digadolinium N-{2-[4,7,10-tris(carboxylatomethyl)-1,4,7,10-tetraazacyclododecan-1-yl]-propanoyl}glycyl-N-(3-{4-[(5-{(1S)-2-carboxy-1-[({(3R)-1-[3-(piperidin-4-yl)propanoyl]-piperidin-3-yl}carbonyl)amino]ethyl}pyridin-3-yl)ethynyl]phenyl}propyl)-3-[(N-{2-[4,7,10-tris(carboxylatomethyl)-1,4,7,10-tetraazacyclododecan-1-yl]propanoyl}glycyl)-amino]alaninamide], the IC50 in assay [1] amounted to 16 nM. The “Concentration within platelet pellet” value in assay [2] (setting [4]) is reported as 13.9 ± 0.3 μM Gd. For `CC(C(=O)NCC(=O)NCC(NC(=O)CNC(=O)C(C)N1CCN(CC(=O)O)CCN(CC(=O)O)CCN(CC(=O)O)CC1)C(=O)NCC(NC(=O)C(CNC(=O)CNC(=O)C(C)N1CCN(CC(=O)O)CCN(CC(=O)O)CCN(CC(=O)O)CC1)NC(=O)CNC(=O)C(C)N1CCN(CC(=O)O)CCN(CC(=O)O)CCN(CC(=O)O)CC1)C(=O)NCCCc1ccc(C#Cc2cncc([C@H](CC(=O)O)NC(=O)[C@@H]3CCCN(C(=O)CCC4CCNCC4)C3)c2)cc1)N1CCN(CC(=O)O)CCN(CC(=O)O)CCN(CC(=O)O)CC1` (stereo partly drawn) [Example 11, Tetragadolinium 2,3-bis({2,3-bis[(N-{2-[4,7,10-tris(carboxylatomethyl)-1,4,7,10-tetraaza-cyclododecan-1-yl]propanoyl}glycyl)amino]propanoyl}amino)-N-(3-{4-[(5-{(1S)-2-carboxy-1-[({(3R)-1-[3-(piperidin-4-yl)propanoyl]piperidin-3-yl}carbonyl)amino]ethyl}-pyridin-3-yl)ethynyl]phenyl}propyl)propanamide], in that order: 26 nM and 19.9 ± 0.9 μM Gd.

The IC50 is the concentration at which inhibition is half-maximal. The low end stands for higher potency, the high end for lower potency.
